Results: patent US20090306112A1, “ANTIVIRAL PROTEASE INHIBITORS” (Gilead Sciences, Inc., priority 2006, published 2009)

What follows are molecules tested against T1, recombinant HIV-1 protease expressed in E. Coli (Human immunodeficiency virus type 1 group M subtype B, UniProt P04585) (assay: HIV-1 Protease Enzyme Assay (Ki), fluorimetric detection of hexapeptide substrate cleavage). Conditions: tight-binding competitive inhibition; 37° C., pH 5.3, final substrate concentration 40 μM, enzyme 1 to 2.5 nM.
T1 construct: Enzyme: recombinant HIV-1 protease expressed in E. Coli; purchased Bachem California, Inc. (Torrance, Calif.) H-9040; host or cells: E. coli
Assay type: biochemical
From the text: Biological Assays Used for the Characterization of HIV Protease Inhibitors HIV-1 Protease Enzyme Assay (Ki)
The assay is based on the fluorimetric detection of synthetic hexapeptide substrate cleavage by HIV-1 protease in a defined reaction buffer as initially described by M. V. Toth and G. R. Marshall, Int. J. Peptide Protein Res. 36, 544 (1990)
Substrate: (2-aminobenzoyl)Thr-Ile-Nle-(p-nitro)Phe-Gln-Arg
Substrate supplied by Bachem California, Inc. (Torrance, Calif.; Cat. no. H-2992)
Enzyme: recombinant HIV-1 protease expressed in E. Coli
Enzyme supplied by Bachem California, Inc. (Torrance, Calif.; Cat. no. H-9040)
Reaction buffer: • 100 mM ammonium acetate, pH 5.3 • 1 M sodium chloride • 1 mM ethylendiaminetetraacetic acid • 1 mM dithiothreitol • 10% dimethylsulfoxide
Assay Protocol for the Determination of Inhibition Constant Ki:
• 1. Prepare series of solutions containing identical amount of the enzyme (1 to 2.5 nM) and a tested inhibitor at different concentrations in the reaction buffer • 2. Transfer the solutions (190 uL each) into a white 96-well plate • 3. Preincubate for 15 min at 37° C. • 4. Solubilize the substrate in 100% dimethylsulfoxide at a concentration of 800 μM. Start the reaction by adding 10 μL of 800 μM substrate into each well (final substrate concentration of 40 μM) • 5. Measure the real-time reaction kinetics at 37° C. by using Gemini 96-well plate fluorimeter (Molecular Devices, Sunnyvale, Calif.) at λ(Ex)=330 nm and λ(Em)=420 nm • 6. Determine initial velocities of the reactions with different inhibitor concentrations and calculate Ki (in picomolar concentration units) value by using EnzFitter program (Biosoft, Cambridge, U.K.) according to an algorithm for tight-binding competitive inhibition described by Ermolieff J., Lin X., and Tang J., Biochemistry 36, 12364 (1997)

SMILES | Ki [nM]
COC(=O)NC(C(=O)NN(Cc1ccc(-c2ccccn2)cc1)C[C@H](O)[C@H](Cc1ccccc1)NC(=O)O[C@H]1C(=O)OCC1(C)C)C(C)(C)C (some centres unmarked) [Example C] | < 0.03
Cc1cccc(C)c1OCC(=O)NN(Cc1ccc(-c2ccccn2)cc1)C[C@H](O)[C@H](Cc1ccccc1)NC(=O)O[C@H]1CO[C@H]2OCC[C@H]21 [Example AN] | < 0.03
CC(C)(C)C(NC(=O)OCc1cscn1)C(=O)NN(Cc1ccc(-c2ccccn2)cc1)C[C@H](O)[C@H](Cc1ccccc1)NC(=O)O[C@H]1CO[C@H]2OCC[C@H]21 (some centres unmarked) [Example M] | < 0.03
COC(=O)NC(C(=O)NN(Cc1ccc(OCc2ccncc2)cc1)C[C@H](O)[C@H](Cc1ccc(OC)cc1)NC(=O)O[C@H]1CO[C@H]2OCC[C@H]21)C(C)(C)C (some centres unmarked) [Example T] | < 0.03
CC(C)(C)C(NC(=O)C(F)(F)F)C(=O)NN(Cc1ccc(-c2ccccn2)cc1)C[C@H](O)[C@H](Cc1ccccc1)NC(=O)O[C@H]1CO[C@H]2OCC[C@H]21 (some centres unmarked) [Example N] | < 0.03
CC(C)OC(=O)NC(C(=O)NN(Cc1ccc(-c2ccccn2)cc1)C[C@H](O)[C@H](Cc1ccccc1)NC(=O)O[C@H]1CO[C@H]2OCC[C@H]21)C(C)(C)C (some centres unmarked) [Example J] | < 0.03
COC(=O)NC(C(=O)NN(Cc1ccc(-c2ccncc2)cc1)C[C@H](O)[C@H](Cc1ccc(OC)cc1)NC(=O)O[C@H]1CO[C@H]2OCC[C@H]21)C(C)(C)C (some centres unmarked) [Example Q] | < 0.03
COC(=O)NC(C(=O)NN(Cc1ccc(OCc2ccoc2)cc1)C[C@H](O)[C@H](Cc1ccc(OC)cc1)NC(=O)O[C@H]1CO[C@H]2OCC[C@H]21)C(C)(C)C (some centres unmarked) [Example V] | < 0.03
